Results from PubChem BioAssay (NCI).
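In this assay, cells in 96-well plates receive the compound at five concentrations for 48 hours. Endpoints are linearly interpolated between the surrounding concentrations. GI50 = concentration required for 50% inhibition of growth. TGI: concentration producing complete growth inhibition.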

Legend:
Assay in all cases: NCI anticancer screen, dose series, 48 h
MDA-MB-231 breast = test system: MDA-MB-231 breast
U251 CNS = test system: U251 CNS
COLO 205 colon = test system: COLO 205 colon
UACC-257 melanoma = test system: UACC-257 melanoma
PC-3 prostate = test system: PC-3 prostate
UO-31 renal = test system: UO-31 renal
NCI-H460 lung = test system: NCI-H460 lung
CCRF-CEM leukemia = test system: CCRF-CEM leukemia
SN12C renal = test system: SN12C renal
LOX IMVI melanoma = test system: LOX IMVI melanoma
HL-60(TB) leukemia = test system: HL-60(TB) leukemia
NCI-H23 lung = test system: NCI-H23 lung
IGROV1 ovarian = test system: IGROV1 ovarian
ACHN renal = test system: ACHN renal
OVCAR-3 ovarian = test system: OVCAR-3 ovarian
M14 melanoma = test system: M14 melanoma
CAKI-1 renal = test system: CAKI-1 renal
RPMI-8226 leukemia = test system: RPMI-8226 leukemia
UACC-62 melanoma = test system: UACC-62 melanoma
NCI-H226 lung = test system: NCI-H226 lung
DU-145 prostate = test system: DU-145 prostate
A549 NSCLC = test system: A549 NSCLC
SK-OV-3 ovarian = test system: SK-OV-3 ovarian
SF-268 CNS = test system: SF-268 CNS
SF-539 CNS = test system: SF-539 CNS
KM12 colon = test system: KM12 colon
NCI-H522 lung = test system: NCI-H522 lung
HCT-116 colon = test system: HCT-116 colon
SK-MEL-28 melanoma = test system: SK-MEL-28 melanoma
SF-295 CNS = test system: SF-295 CNS
OVCAR-4 ovarian = test system: OVCAR-4 ovarian
MCF7 breast = test system: MCF7 breast
T-47D breast = test system: T-47D breast
A498 renal = test system: A498 renal
MOLT-4 leukemia = test system: MOLT-4 leukemia
OVCAR-5 ovarian = test system: OVCAR-5 ovarian
SNB-75 CNS = test system: SNB-75 CNS
SW-620 colon = test system: SW-620 colon
K-562 leukemia = test system: K-562 leukemia
HOP-62 NSCLC = test system: HOP-62 NSCLC
SNB-19 CNS = test system: SNB-19 CNS
SK-MEL-5 melanoma = test system: SK-MEL-5 melanoma
TK-10 renal = test system: TK-10 renal
HS 578T breast = test system: HS 578T breast
BT-549 breast = test system: BT-549 breast
NCI/ADR-RES ovarian = test system: NCI/ADR-RES ovarian
HCT-15 colon = test system: HCT-15 colon
MDA-MB-435 = test system: MDA-MB-435
HT29 colon = test system: HT29 colon
MALME-3M melanoma = test system: MALME-3M melanoma
HOP-92 NSCLC = test system: HOP-92 NSCLC
SK-MEL-2 melanoma = test system: SK-MEL-2 melanoma
786-0 renal = test system: 786-0 renal
HCC-2998 colon = test system: HCC-2998 colon
SR leukemia = test system: SR leukemia

C[C@@H](O)[C@@H](C)Oc1nc(Nc2ccc(S(=N)(=O)C3CC3)cc2)ncc1C(F)(F)F (some centres undefined)
GI50 (MDA-MB-231 breast): 33.6 nM | TGI (MDA-MB-231 breast): > 100000 nM | GI50 (U251 CNS): 25.2 nM | TGI (U251 CNS): 13200 nM | GI50 (COLO 205 colon): 15.8 nM | TGI (COLO 205 colon): 32.8 nM | GI50 (UACC-257 melanoma): 30.6 nM | TGI (UACC-257 melanoma): 133 nM | GI50 (PC-3 prostate): 40.1 nM | TGI (PC-3 prostate): 443 nM | GI50 (UO-31 renal): 23.9 nM | TGI (UO-31 renal): 89.5 nM | GI50 (NCI-H460 lung): 30.3 nM | TGI (NCI-H460 lung): 11500 nM | GI50 (CCRF-CEM leukemia): 23.1 nM | TGI (CCRF-CEM leukemia): 62.1 nM | GI50 (SN12C renal): 34.2 nM | TGI (SN12C renal): > 100000 nM | GI50 (LOX IMVI melanoma): 17.8 nM | TGI (LOX IMVI melanoma): 10700 nM | GI50 (HL-60(TB) leukemia): 18.3 nM | TGI (HL-60(TB) leukemia): 54.4 nM | GI50 (NCI-H23 lung): 32.2 nM | TGI (NCI-H23 lung): 318 nM | GI50 (IGROV1 ovarian): 29.1 nM | TGI (IGROV1 ovarian): 25200 nM | GI50 (ACHN renal): 26.1 nM | TGI (ACHN renal): > 100000 nM | GI50 (OVCAR-3 ovarian): 18 nM | TGI (OVCAR-3 ovarian): 18600 nM | GI50 (M14 melanoma): 34.9 nM | TGI (M14 melanoma): 316 nM | GI50 (CAKI-1 renal): 39 nM | TGI (CAKI-1 renal): > 100000 nM | GI50 (RPMI-8226 leukemia): 22.6 nM | TGI (RPMI-8226 leukemia): 58.6 nM | GI50 (UACC-62 melanoma): 24.9 nM | TGI (UACC-62 melanoma): 93.1 nM | GI50 (NCI-H226 lung): 28.8 nM | TGI (NCI-H226 lung): 106 nM | GI50 (DU-145 prostate): 25.8 nM | TGI (DU-145 prostate): > 61800 nM | GI50 (A549 NSCLC): 29.8 nM | TGI (A549 NSCLC): 15600 nM | GI50 (SK-OV-3 ovarian): 89.1 nM | TGI (SK-OV-3 ovarian): > 100000 nM | GI50 (SF-268 CNS): 30 nM | TGI (SF-268 CNS): 726 nM | GI50 (SF-539 CNS): 16.2 nM | TGI (SF-539 CNS): 38.4 nM | GI50 (KM12 colon): 24.2 nM | TGI (KM12 colon): 1160 nM | GI50 (NCI-H522 lung): 32.8 nM | TGI (NCI-H522 lung): 810 nM | GI50 (HCT-116 colon): 22.8 nM | TGI (HCT-116 colon): > 100000 nM | GI50 (SK-MEL-28 melanoma): 29.4 nM | TGI (SK-MEL-28 melanoma): 178 nM | GI50 (SF-295 CNS): 31.2 nM | TGI (SF-295 CNS): > 55300 nM | GI50 (OVCAR-4 ovarian): 44.2 nM | TGI (OVCAR-4 ovarian): 26900 nM | GI50 (MCF7 breast): 16.9 nM | TGI (MCF7 breast): 29700 nM | GI50 (T-47D breast): 38.6 nM | TGI (T-47D breast): 6620 nM | GI50 (A498 renal): 21 nM | TGI (A498 renal): 46.1 nM | GI50 (MOLT-4 leukemia): 25.5 nM | TGI (MOLT-4 leukemia): 81.6 nM | GI50 (OVCAR-5 ovarian): 33 nM | TGI (OVCAR-5 ovarian): > 70600 nM | GI50 (SNB-75 CNS): 16.2 nM | TGI (SNB-75 CNS): 55.4 nM | GI50 (SW-620 colon): 28.1 nM | TGI (SW-620 colon): 4350 nM | GI50 (K-562 leukemia): 42.5 nM | TGI (K-562 leukemia): > 100000 nM | GI50 (HOP-62 NSCLC): 28.3 nM | TGI (HOP-62 NSCLC): 16400 nM | GI50 (SNB-19 CNS): 30.9 nM | TGI (SNB-19 CNS): 43000 nM | GI50 (SK-MEL-5 melanoma): 26.6 nM | TGI (SK-MEL-5 melanoma): 108 nM | GI50 (TK-10 renal): 37.7 nM | TGI (TK-10 renal): > 45900 nM | GI50 (HS 578T breast): 31.3 nM | TGI (HS 578T breast): 7960 nM | GI50 (BT-549 breast): 27.4 nM | TGI (BT-549 breast): 182 nM | GI50 (NCI/ADR-RES ovarian): 132 nM | TGI (NCI/ADR-RES ovarian): 28500 nM | GI50 (HCT-15 colon): 32.9 nM | TGI (HCT-15 colon): > 46800 nM | GI50 (MDA-MB-435): 33.5 nM | TGI (MDA-MB-435): 1220 nM | GI50 (HT29 colon): 33 nM | GI50 (MALME-3M melanoma): 45.5 nM | TGI (MALME-3M melanoma): 167 nM | GI50 (HOP-92 NSCLC): 26 nM | TGI (HOP-92 NSCLC): 75.3 nM | GI50 (SK-MEL-2 melanoma): 21.9 nM | TGI (SK-MEL-2 melanoma): 62.1 nM | GI50 (786-0 renal): 35.2 nM | TGI (786-0 renal): 17800 nM | GI50 (HCC-2998 colon): 46.5 nM | TGI (HCC-2998 colon): 2720 nM | GI50 (SR leukemia): < 12.2 nM | TGI (SR leukemia): 47.5 nM
